Assay: xn = mol fraction of the nth substance listed
Conditions: Liquid, Taylor dispersion method, x1 = 0

N#N [nitrogen] + O
Conditions	binary diffusion coefficient [m2/s]
298 K, 12000 kPa	1.99e-09
298 K, 25000 kPa	2e-09
298 K, 44600 kPa	1.98e-09
323 K, 14600 kPa	3.28e-09
323 K, 25100 kPa	3.47e-09
323 K, 45000 kPa	3.2e-09
373 K, 14800 kPa	6.62e-09
373 K, 45000 kPa	6.42e-09
423 K, 26900 kPa	1.07e-08
423 K, 45900 kPa	1.04e-08

O=C=O [carbon dioxide] + O
Conditions	binary diffusion coefficient [m2/s]
298 K, 14000 kPa	2.23e-09
298 K, 31600 kPa	2.26e-09
298 K, 47700 kPa	2.22e-09
323 K, 14200 kPa	3.64e-09
323 K, 31800 kPa	3.72e-09
323 K, 48600 kPa	3.94e-09
348 K, 14900 kPa	5.39e-09
348 K, 31800 kPa	5.31e-09
348 K, 49300 kPa	5.37e-09
373 K, 14900 kPa	7.42e-09
373 K, 31000 kPa	7.52e-09
373 K, 48500 kPa	7.68e-09
398 K, 14300 kPa	9.95e-09
398 K, 30900 kPa	1.01e-08
398 K, 48000 kPa	1.02e-08
423 K, 14300 kPa	1.23e-08
423 K, 48000 kPa	1.22e-08
